In patent publication US20250221979A1, “NOVEL HETEROCYCLIC COMPOUND” (SHOUYAO HOLDINGS (BEIJING) CO., LTD., priority 2022, published 2025):

Molecular target: human MAT2A enzyme (Homo sapiens (Human), UniProt P31153)
Assay: In vitro enzymatic inhibition activity assay on MAT2A (PiColorLock phosphate detection)
Assay type: biochemical
Settings: purified human MAT2A 10 nM, ATP 50 μM, L-methionine 100 μM, 6 h at 23° C.; read-out: MAT2A inhibitory activity IC50
Procedure: Enzymatic activity assays of compounds of this patent against MAT2A (to detect half inhibitory concentration IC50 values of the compounds) were performed using the phosphate detection kit PiColorLockTM (ab270004, purchased from Abcam). This method utilized the principle that purified human MAT2A enzyme catalyzes the formation of S-adenosylmethionine (SAM) from L-methionine and ATP to release free phosphate, and used the spectrophotometric method to quantify phosphate, so as to determine the enzymatic activity of MAT2A. Compounds were diluted in a 10-fold gradient starting at 1 mM with 100% DMSO (for a total of 8 concentrations) and 2 μL of each concentration was added to 48 μL of reaction buffer (50 mM Tris-HCl PH 7.5, 50 mM KCl, 10 mM MgCl2, 0.01% Brij-35, 0.01% BSA, 1 mM DTT) and mixed well. The final diluted compound was prepared, and 5 μL of MAT2A enzyme (final concentration of 10 nM), 5 μL of ATP (final concentration of 50 μM), and 5 μL of L-methionine (final concentration of 100 μM) were added to each well of a 384-well plate (#3701, purchased from CORNING). After the 384-well plate was placed in the incubator at 23° C. for 6 h, 5 μL of PiColorLock reagent diluted Accelerator (dilution ratio 1:100) was added to each well, and the reaction was stopped by incubating in the incubator at 23° C. for 5 min. 2 μL of Stabiliser was added, the absorbance was read at 630 nm on BMG CLARIOstar, and the IC50 value of the compound was calculated by using GraphPad Prism software.
Under the conditions of this experiment, the inhibition of MAT2A by test compounds can be expressed as an IC50 value for the inhibition of the level of phosphate production during the enzymatic reaction.

Chain of human MAT2A enzyme (P31153 whole entry): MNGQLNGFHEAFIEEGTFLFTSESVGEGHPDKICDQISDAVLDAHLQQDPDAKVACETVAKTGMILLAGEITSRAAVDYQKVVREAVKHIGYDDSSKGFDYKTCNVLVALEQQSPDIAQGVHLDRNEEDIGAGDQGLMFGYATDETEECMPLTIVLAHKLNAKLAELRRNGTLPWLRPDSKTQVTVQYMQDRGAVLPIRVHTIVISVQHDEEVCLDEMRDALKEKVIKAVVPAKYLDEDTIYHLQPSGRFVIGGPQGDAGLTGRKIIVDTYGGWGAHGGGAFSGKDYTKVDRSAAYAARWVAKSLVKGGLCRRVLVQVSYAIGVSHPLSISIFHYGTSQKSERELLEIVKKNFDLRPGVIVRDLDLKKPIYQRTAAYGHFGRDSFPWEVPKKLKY

SMILES | IC50 [nM]
COC(=O)c1c(N)c2ccc(Br)cc2n(-c2ccc([N+](=O)[O-])cc2)c1=O [Example 130, methyl 4-amino-2-oxo-7-bromo-1-(4-nitrophenyl)-1,2-dihydroquinoline-3-carboxylate] | 5.99
CCOC(=O)c1c(N)c2ccc(C(F)(F)F)cc2n(-c2ccc([C@@H](C)O)cc2)c1=O [Example 330, ethyl 4-amino-1-(4-(1-(R)-hydroxyethyl)phenyl)-2-oxo-7-(trifluoromethyl)-1,2-dihydroquinoline-3-carboxylate] | 0.92
COC(=O)c1c(N)c2ccc(C(F)(F)F)cc2n(-c2ccc(C(C)O)cc2C)c1=O (stereo not shown) [Example 269, methyl 4-amino-1-(4-(1-hydroxyethyl)-2-methylphenyl)-2-oxo-7-(trifluoromethyl)-1,2-dihydroquinoline-3-carboxylate] | 5.95
COC(=O)c1c(N)c2ccc(C(F)(F)F)nc2n(-c2ccc(N)cc2)c1=O [Example 274, methyl 4-amino-1-(4-aminophenyl)-2-oxo-7-(trifluoromethyl)-1,2-dihydro-1,8-naphthyridine-3-carboxylate] | 0.53
COC(=O)c1c(N)c2ccc(C(F)(F)F)cc2n(-c2ccc3c(c2)CCC3(C)O)c1=O (stereo not shown) [Example 148, methyl 4-amino-1-(1-hydroxy-1-methyl-2,3-dihydro-1H-inden-5-yl)-2-oxo-7-(trifluoromethyl)-1,2-dihydroquinoline-3-carboxylate] | 2.83
COC(=O)c1c(N)c2ccc(C(F)(F)F)cc2n(-c2ccc(OC(F)F)cc2)c1=O [Example 63, methyl 4-amino-1-(4-(difluoromethoxy)phenyl)-2-oxo-7-(trifluoromethyl)-1,2-dihydroquinoline-3-carboxylate] | 1.58
COC(=O)c1c(N)c2ccc(Br)nc2n(-c2ccc(Cl)c3cnccc23)c1=O [Example 289, methyl 4-amino-1-(8-chloroisoquinolin-5-yl)-7-bromo-2-oxo-1,2-dihydro-1,8-naphthyridine-3-carboxylate] | 1.04
COC(=O)c1c(N)c2ccc(Br)cc2n(-c2ccc3ncoc3c2)c1=O [Example 268, methyl 4-amino-1-(benzo[d]oxazol-6-yl)-7-bromo-2-oxo-1,2-dihydroquinoline-3-carboxylate] | 3.39
COC(=O)c1c(N)c2ccc(I)cc2n(-c2ccc(OC)cc2)c1=O [Example 79, methyl 4-amino-7-iodo-1-(4-methoxyphenyl)-2-oxo-1,2-dihydroquinoline-3-carboxylate] | 0.61
COC(=O)c1c(N)c2ccc(C(F)(F)F)cc2n(-c2ccc(Br)cc2)c1=O [Example 81, methyl 4-amino-1-(4-bromophenyl)-2-oxo-7-(trifluoromethyl)-1,2-dihydro quinoline-3-carboxylate] | 1.68
Nc1c(C(=O)OC2CC2)c(=O)n(-c2ccccc2)c2cc(I)ccc12 [Example 50, cyclopropyl 4-amino-7-iodo-2-oxo-1-phenyl-1,2-dihydroquinolin-3-carboxylate] | 4.57
COC(=O)c1c(N)c2ccc(C)cc2n(-c2ccc(C(C)O)cc2)c1=O (stereo not shown) [Example 329, methyl 4-amino-1-(4-(1-hydroxyethyl)phenyl)-2-oxo-7-methyl-1,2-dihydroquinoline-3-carboxylate] | 2.65
COC(=O)c1c(N)c2ccc(C3CC3)cc2n(-c2ccc(Cl)cc2)c1=O [Example 134, methyl 4-amino-1-(4-chlorophenyl)-7-cyclopropyl-2-oxo-1,2-dihydro quinoline-3-carboxylate] | 2.01
COC(=O)c1c(N)c2ccc(I)cc2n(Cc2ccccc2)c1=O [Example 28, methyl 4-amino-1-benzyl-7-iodo-2-oxo-1,2-dihydroquinoline-3-carboxylate] | 3.62
COC(=O)c1c(N)c2ccc(Br)cc2n(-c2cccc3nccn23)c1=O [Example 195, methyl 4-amino-7-bromo-1-(imidazo(3,2-a)pyridin-5-yl)-2-oxo-1,2-dihydro quinoline-3-carboxylate] | 4.91
Nc1c(C(=O)OC2CC2)c(=O)n(-c2ccccc2)c2cc(C(F)(F)F)ccc12 [Example 51, cyclopropyl 4-amino-2-oxo-1-phenyl-7-(trifluoromethyl)-1,2-dihydroquinolin-3-carboxylate] | 2.62
COC(=O)c1c(N)c2ccc(Br)cc2n(-c2ccc3ccncc3c2)c1=O [Example 219, methyl 4-amino-7-bromo-1-(isoquinolin-7-yl)-2-oxo-1,2-dihydroquinoline-3-carboxylate] | 1.87

SMILES | IC50 [nM]
N#Cc1c(N)c2ccc(I)cc2n(-c2ccccc2)c1=O [Example 4, 4-amino-7-iodo-2-oxo-1-phenyl-1,2-dihydroquinolin-3-carbonitrile] | 2.28
COC(=O)c1c(N)c2ccc(C(F)(F)F)nc2n(-c2ccccc2)c1=O [Example 150, methyl 4-amino-2-oxo-1-phenyl-7-(trifluoromethyl)-1,2-dihydro-1,8-naphthyridine-3-carboxylate] | 1.66
COC(=O)c1c(N)c2ccc(Br)cc2n(-c2cnc(Cl)cc2C)c1=O [Example 161, methyl 4-amino-7-bromo-1-(6-chloro-4-methylpyridin-3-yl)-2-oxo-1,2-dihydroquinoline-3-carboxylate] | 4.67
COC(=O)c1c(N)c2ccc(C(F)(F)F)nc2n(-c2cccc3c(Cl)nccc23)c1=O [Example 318, methyl 4-amino-1-(1-chloroisoquinolin-5-yl)-2-oxo-7-(trifluoromethyl)-1,2-dihydro-1,8-naphthyridine-3-carboxylate] | 2.34
COC(=O)c1c(N)c2ccc(Br)nc2n(-c2ccc(Cl)nc2)c1=O [Example 297, methyl 4-amino-7-bromo-1-(6-chloropyridin-3-yl)-2-oxo-1,2-dihydro-1,8-naphthyridine-3-carboxylate] | 2.04
COC(=O)c1c(N)c2ccc(C(F)(F)F)cc2n(-c2ccc3occc3c2)c1=O [Example 196, methyl 4-amino-1-(6-benzofuran-5-yl)-2-oxo-7-(trifluoromethyl)-1,2-dihydro quinoline-3-carboxylate] | 0.81
COC(=O)c1c(N)c2ccc(C(F)F)cc2n(-c2ccc(C(C)O)cc2)c1=O (stereo not shown) [Example 336, methyl 4-amino-7-(difluoromethyl)-1-(4-(1-hydroxyethyl)phenyl)-2-oxo-1,2-dihydroquinoline-3-carboxylate] | 1.94
COC(=O)c1c(N)c2ccc(Br)cc2n(-c2cccc3c(C)nccc23)c1=O [Example 231, methyl 4-amino-1-(1-methylisoquinolin-5-yl)-7-bromo-2-oxo-1,2-dihydroquinoline-3-carboxylate] | 2.36
COC(=O)c1c(N)c2ccc(C(F)(F)F)cc2n(-c2ccc(OC)cc2)c1=O [Example 25, methyl 4-amino-1-(4-methoxyphenyl)-2-oxo-7-(trifluoromethyl)-1,2-dihydro quinoline-3-carboxylate] | 0.43
COC(=O)c1c(N)c2ccc(Br)nc2n(-c2ccc(N)cc2)c1=O [Example 263, methyl 4-amino-1-(4-aminophenyl)-7-bromo-2-oxo-1,2-dihydro-1,8-naphthyridine-3-carboxylate] | 1.41
C#Cc1ccc(-n2c(=O)c(C(=O)OC)c(N)c3ccc(C(F)(F)F)cc32)cc1 [Example 133, methyl 4-amino-1-(4-ethynylphenyl)-2-oxo-7-(trifluoromethyl)-1,2-dihydroquinoline-3-carboxylate] | 2.79
COC(=O)c1c(N)c2ccc(C(F)(F)F)cc2n(-c2ccccc2)c1=O [Example 17, methyl 4-amino-7-trifluoromethyl-2-oxo-1-phenyl-1,2-dihydroquinoline-3-carboxylate] | 3.58
COC(=O)c1c(N)c2ccc(C3CC3)cc2n(-c2ccc(C(C)O)cc2)c1=O (stereo not shown) [Example 328, methyl 4-amino-1-(4-(1-hydroxyethyl)phenyl)-2-oxo-7-cyclopropyl-1,2-dihydroquinoline-3-carboxylate] | 2.59
COC(=O)c1c(N)c2ccc(C(F)(F)F)cc2n(-c2cccc3c[nH]nc23)c1=O [Example 267, methyl 4-amino-1-(2H-indazol-7-yl)-2-oxo-7-(trifluoromethyl)-1,2-dihydroquinoline-3-carboxylate] | 7.38
COC(=O)c1c(N)c2ccc(Br)cc2n(Cc2ccccc2)c1=O [Example 30, methyl 4-amino-1-benzyl-7-bromo-2-oxo-1,2-dihydroquinoline-3-carboxylate] | 6.1
COC(=O)c1c(N)c2ccc(C(F)(F)F)cc2n(-c2ccc(N)cc2)c1=O [Example 273, methyl 4-amino-1-(4-aminophenyl)-2-oxo-7-(trifluoromethyl)-1,2-dihydroquinoline-3-carboxylate] | 0.92
COC(=O)c1c(N)c2ccc(I)cc2n(-c2ccc3ccncc3c2)c1=O [Example 242, methyl 4-amino-7-iodo-1-(isoquinolin-7-yl)-2-oxo-1,2-dihydroquinoline-3-carboxylate] | 1.26
